Experimental data from patent US11582970B2, “2-aminoimidazole-phenyl derivatives useful for controlling microbial growth” (NORTH CAROLINA STATE UNIVERSITY, priority 2017, dated 2023).

What was measured:
Assay in all cases: MIC of meropenem in combination with compound, CDC carbapenem resistant strain
Format in all cases: cell-based
A. baumannii (Ab) AR# 37 = test system: A. baumannii (Ab) AR# 37
Procedure: (§1) EXAMPLE 2: Six compounds were assessed for their activity in combination with meropenem against carbapenem resistant strains of A. baumannii (Ab), K. pneumoniae (Kp), and E. coli acquired from the Center for Disease Control (CDC). AR #—assigned AR-BANK number from the CDC.

A. baumannii (Ab) AR# 56 = test system: A. baumannii (Ab) AR# 56
Procedure: as §1

E. coli AR# 48 = test system: E. coli AR# 48
Procedure: as §1

A. baumannii (Ab) AR# 83 = test system: A. baumannii (Ab) AR# 83
Procedure: as §1

A. baumannii (Ab) AR# 33 = test system: A. baumannii (Ab) AR# 33
Procedure: as §1

A. baumannii (Ab) AR# 45 = test system: A. baumannii (Ab) AR# 45
Procedure: as §1

A. baumannii (Ab) AR# 52 = test system: A. baumannii (Ab) AR# 52
Procedure: as §1

[1] = test system: K. pneumoniae (Kp) AR# 41
Procedure: as §1

[2] = test system: K. pneumoniae (Kp) AR# 68
Procedure: as §1

A. baumannii (Ab) AR# 88 = test system: A. baumannii (Ab) AR# 88
Procedure: as §1

E. coli AR# 55 = test system: E. coli AR# 55
Procedure: as §1

A. baumannii (Ab) AR# 35 = test system: A. baumannii (Ab) AR# 35
Procedure: as §1

[3] = test system: K. pneumoniae (Kp) AR# 98
Procedure: as §1

A. baumannii (Ab) AR# 70 = test system: A. baumannii (Ab) AR# 70
Procedure: as §1

A. baumannii (Ab) AR# 63 = test system: A. baumannii (Ab) AR# 63
Procedure: as §1

[4] = test system: K. pneumoniae (Kp) AR# 40
Procedure: as §1

A. baumannii (Ab) AR# 36 = test system: A. baumannii (Ab) AR# 36
Procedure: as §1

[5] = 15 μM of 2-amino imidazole compound
[6] = 64 μM of 2-amino imidazole compound
[7] = 7 μM of 2-amino imidazole compound
[8] = 30 μM of 2-amino imidazole compound
[9] = 4 μM of 2-amino imidazole compound
[10] = 2 μM of 2-amino imidazole compound
[11] = 60 μM of 2-amino imidazole compound

CCCc1ccc(NC(=O)Nc2cccc(-c3cnc(N)[nH]3)c2)cc1 [Compound 2, 1-(3-(2-amino-1H-imidazol-5-yl)phenyl)-3-(4-propylphenyl)urea]
Minimum Inhibitory Concentration of Meropenem (A. baumannii (Ab) AR# 37; [5]): 64 (15) μg/mL
Minimum Inhibitory Concentration of Meropenem (A. baumannii (Ab) AR# 56; [5]): 8 (15) μg/mL
Minimum Inhibitory Concentration of Meropenem (E. coli AR# 48; [6]): 128 (64) μg/mL
Minimum Inhibitory Concentration of Meropenem (A. baumannii (Ab) AR# 83; [5]): 96 (15) μg/mL
Minimum Inhibitory Concentration of Meropenem (A. baumannii (Ab) AR# 33; [5]): 32 (15) μg/mL
Minimum Inhibitory Concentration of Meropenem (A. baumannii (Ab) AR# 45; [5]): 1.5 (15) μg/mL
Minimum Inhibitory Concentration of Meropenem (A. baumannii (Ab) AR# 52; [5]): 1.5 (15) μg/mL
Minimum Inhibitory Concentration of Meropenem [1, 6]: 32 (64) μg/mL
Minimum Inhibitory Concentration of Meropenem ([2]; 32 μM of 2-amino imidazole compound): 256 (32) μg/mL
Minimum Inhibitory Concentration of Meropenem (A. baumannii (Ab) AR# 88; [5]): 128 (15) μg/mL
Minimum Inhibitory Concentration of Meropenem (E. coli AR# 55; [6]): 64 (64) μg/mL
Minimum Inhibitory Concentration of Meropenem (A. baumannii (Ab) AR# 35; [5]): 16 (15) μg/mL
Minimum Inhibitory Concentration of Meropenem [3, 6]: 64 (64) μg/mL
Minimum Inhibitory Concentration of Meropenem (A. baumannii (Ab) AR# 70; [7]): 2 (7) μg/mL
Minimum Inhibitory Concentration of Meropenem (A. baumannii (Ab) AR# 63; [8]): 8 (30) μg/mL
Minimum Inhibitory Concentration of Meropenem [4, 6]: 1024 (64) μg/mL
Minimum Inhibitory Concentration of Meropenem (A. baumannii (Ab) AR# 36; [8]): 4 (30) μg/mL

Nc1ncc(-c2cccc(NC(=O)Nc3cc(Br)cc(Br)c3)c2)[nH]1 [Compound 7, 1-(3-(2-amino-1H-imidazol-5-yl)phenyl)-3-(3,5-dibromophenyl)urea]
Minimum Inhibitory Concentration of Meropenem (A. baumannii (Ab) AR# 37; [7]): 32 (7) μg/mL
Minimum Inhibitory Concentration of Meropenem (A. baumannii (Ab) AR# 56; [5]): 8 (15) μg/mL
Minimum Inhibitory Concentration of Meropenem (E. coli AR# 48; [5]): 64 (15) μg/mL
Minimum Inhibitory Concentration of Meropenem (A. baumannii (Ab) AR# 83; [5]): 24 (15) μg/mL
Minimum Inhibitory Concentration of Meropenem (A. baumannii (Ab) AR# 33; [5]): 16 (15) μg/mL
Minimum Inhibitory Concentration of Meropenem (A. baumannii (Ab) AR# 45; [5]): 1 (15) μg/mL
Minimum Inhibitory Concentration of Meropenem (A. baumannii (Ab) AR# 52; [9]): 2 (4) μg/mL
Minimum Inhibitory Concentration of Meropenem [1, 5]: 8 (15) μg/mL
Minimum Inhibitory Concentration of Meropenem [2, 7]: 128 (7) μg/mL
Minimum Inhibitory Concentration of Meropenem (A. baumannii (Ab) AR# 88; [5]): 64 (15) μg/mL
Minimum Inhibitory Concentration of Meropenem (E. coli AR# 55; [5]): 64 (15) μg/mL
Minimum Inhibitory Concentration of Meropenem (A. baumannii (Ab) AR# 35; [8]): 32 (30) μg/mL
Minimum Inhibitory Concentration of Meropenem [3, 7]: 64 (7) μg/mL
Minimum Inhibitory Concentration of Meropenem (A. baumannii (Ab) AR# 70; [10]): 4 (2) μg/mL
Minimum Inhibitory Concentration of Meropenem (A. baumannii (Ab) AR# 63; [9]): 32 (4) μg/mL
Minimum Inhibitory Concentration of Meropenem [4, 5]: 64 (15) μg/mL
Minimum Inhibitory Concentration of Meropenem (A. baumannii (Ab) AR# 36; [7]): 8 (7) μg/mL

Cc1nc(N)[nH]c1-c1cccc(NC(=O)Nc2ccc(C(F)(F)F)c(Cl)c2)c1 [Compound 68, 1-(3-(2-amino-4-methyl-1H-imidazol-5-yl)phenyl)-3-(3-chloro-4-(trifluoromethyl)phenyl)urea]
Minimum Inhibitory Concentration of Meropenem (A. baumannii (Ab) AR# 37; [9]): 64 (4) μg/mL
Minimum Inhibitory Concentration of Meropenem (A. baumannii (Ab) AR# 56; [9]): 4 (4) μg/mL
Minimum Inhibitory Concentration of Meropenem (E. coli AR# 48; [9]): 128 (4) μg/mL
Minimum Inhibitory Concentration of Meropenem (A. baumannii (Ab) AR# 83; [9]): 64 (4) μg/mL
Minimum Inhibitory Concentration of Meropenem (A. baumannii (Ab) AR# 33; [9]): 64 (4) μg/mL
Minimum Inhibitory Concentration of Meropenem (A. baumannii (Ab) AR# 45; [9]): 3 (4) μg/mL
Minimum Inhibitory Concentration of Meropenem (A. baumannii (Ab) AR# 52; [9]): 4 (4) μg/mL
Minimum Inhibitory Concentration of Meropenem [1, 9]: 64 (4) μg/mL
Minimum Inhibitory Concentration of Meropenem [2, 7]: 128 (7) μg/mL
Minimum Inhibitory Concentration of Meropenem (A. baumannii (Ab) AR# 88; [9]): 64 (4) μg/mL
Minimum Inhibitory Concentration of Meropenem (E. coli AR# 55; [9]): 64 (4) μg/mL
Minimum Inhibitory Concentration of Meropenem (A. baumannii (Ab) AR# 35; [9]): 64 (4) μg/mL
Minimum Inhibitory Concentration of Meropenem [3, 7]: 32 (7) μg/mL
Minimum Inhibitory Concentration of Meropenem (A. baumannii (Ab) AR# 70; [9]): 1 (4) μg/mL
Minimum Inhibitory Concentration of Meropenem (A. baumannii (Ab) AR# 63; [10]): 128 (2) μg/mL
Minimum Inhibitory Concentration of Meropenem [4, 7]: 64 (7) μg/mL
Minimum Inhibitory Concentration of Meropenem (A. baumannii (Ab) AR# 36; [9]): 48 (4) μg/mL

Nc1ncc(-c2cccc(NC(=O)Nc3cccc(-c4cnc(N)[nH]4)c3)c2)[nH]1 [Compound 92, 1,3-bis(3-(2-amino-1H-imidazol-5-yl)phenyl)urea]
Minimum Inhibitory Concentration of Meropenem (A. baumannii (Ab) AR# 37; [5]): 32 (15) μg/mL
Minimum Inhibitory Concentration of Meropenem (A. baumannii (Ab) AR# 56; [5]): 8 (15) μg/mL
Minimum Inhibitory Concentration of Meropenem (E. coli AR# 48; [7]): 256 (7) μg/mL
Minimum Inhibitory Concentration of Meropenem (A. baumannii (Ab) AR# 83; [5]): 64 (15) μg/mL
Minimum Inhibitory Concentration of Meropenem (A. baumannii (Ab) AR# 33; [5]): 12 (15) μg/mL
Minimum Inhibitory Concentration of Meropenem (A. baumannii (Ab) AR# 45; [7]): 2 (7) μg/mL
Minimum Inhibitory Concentration of Meropenem (A. baumannii (Ab) AR# 52; [10]): 2 (2) μg/mL
Minimum Inhibitory Concentration of Meropenem [1, 11]: 64 (60) μg/mL
Minimum Inhibitory Concentration of Meropenem [2, 8]: 64 (30) μg/mL
Minimum Inhibitory Concentration of Meropenem (A. baumannii (Ab) AR# 88; [5]): 64 (15) μg/mL
Minimum Inhibitory Concentration of Meropenem (E. coli AR# 55; [5]): 128 (15) μg/mL
Minimum Inhibitory Concentration of Meropenem (A. baumannii (Ab) AR# 35; [8]): 8 (30) μg/mL
Minimum Inhibitory Concentration of Meropenem [3, 11]: 64 (60) μg/mL
Minimum Inhibitory Concentration of Meropenem (A. baumannii (Ab) AR# 70; [10]): 4 (2) μg/mL
Minimum Inhibitory Concentration of Meropenem (A. baumannii (Ab) AR# 63; [7]): 8 (7) μg/mL
Minimum Inhibitory Concentration of Meropenem [4, 11]: 256 (60) μg/mL
Minimum Inhibitory Concentration of Meropenem (A. baumannii (Ab) AR# 36; [5]): 4 (15) μg/mL
